From PubChem BioAssay (NCI)
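Dose response: 5 concentrations. Exposure: 48 h. Format: 96-well plates. Endpoint: linear interpolation; highest concentration if not reached. TGI: concentration producing complete growth inhibition.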

Legend:
Assay in all cases: DTP human tumour cell line panel, 48 h
SK-MEL-5 melanoma = tested on: SK-MEL-5 melanoma
MALME-3M melanoma = tested on: MALME-3M melanoma
OVCAR-8 ovarian = tested on: OVCAR-8 ovarian
NCI-H23 lung = tested on: NCI-H23 lung
OVCAR-5 ovarian = tested on: OVCAR-5 ovarian
SF-539 CNS = tested on: SF-539 CNS
TK-10 renal = tested on: TK-10 renal
CCRF-CEM leukemia = tested on: CCRF-CEM leukemia
MCF7 breast = tested on: MCF7 breast
HCC-2998 colon = tested on: HCC-2998 colon
SNB-75 CNS = tested on: SNB-75 CNS
HS 578T breast = tested on: HS 578T breast
MDA-N = tested on: MDA-N
NCI-H522 lung = tested on: NCI-H522 lung
A498 renal = tested on: A498 renal
T-47D breast = tested on: T-47D breast
HOP-62 NSCLC = tested on: HOP-62 NSCLC
COLO 205 colon = tested on: COLO 205 colon
RPMI-8226 leukemia = tested on: RPMI-8226 leukemia
NCI/ADR-RES ovarian = tested on: NCI/ADR-RES ovarian

| SMILES | TGI (SK-MEL-5 melanoma) [µM] | TGI (MALME-3M melanoma) [µM] | TGI (OVCAR-8 ovarian) [µM] | TGI (NCI-H23 lung) [µM] | TGI (OVCAR-5 ovarian) [µM] | TGI (SF-539 CNS) [µM] | TGI (TK-10 renal) [µM] | TGI (CCRF-CEM leukemia) [µM] | TGI (MCF7 breast) [µM] | TGI (HCC-2998 colon) [µM] | TGI (SNB-75 CNS) [µM] | TGI (HS 578T breast) [µM] | TGI (MDA-N) [µM] | TGI (NCI-H522 lung) [µM] | TGI (A498 renal) [µM] | TGI (T-47D breast) [µM] | TGI (HOP-62 NSCLC) [µM] | TGI (COLO 205 colon) [µM] | TGI (RPMI-8226 leukemia) [µM] | TGI (NCI/ADR-RES ovarian) [µM] |
| --- | --- | --- | --- | --- | --- | --- | --- | --- | --- | --- | --- | --- | --- | --- | --- | --- | --- | --- | --- | --- |
| O=C1c2cn[nH]c2N=C(Nc2ccccc2)C1N=Cc1ccc([N+](=O)[O-])cc1 (stereo unspecified) | > 10 | > 10 | > 10 | > 10 | > 10 | > 10 | > 10 | > 10 | > 10 | > 10 | > 10 | > 10 | > 10 | > 10 |  |  |  |  |  |  |
| CCOC(=O)C(NC(=O)c1cccc(Cl)c1)(Nc1ccc(S(=O)(=O)Nc2cc(C)nc(C)n2)cc1)C(F)(F)F (stereo unspecified) | > 100 | > 100 | > 100 | > 100 | > 100 | > 100 | > 100 | > 100 | > 100 | > 100 | > 100 | > 100 |  | > 100 | > 100 | > 100 | > 100 | > 100 | > 100 | > 100 |
| C1=CCC[C@@H]2CN3CCCC/C=C\CCCC[C@H]4C[C@H](CN(CCCCCCCC1)C4)[C@H]2CC3 | 16.3 | 17.5 | 17.5 | 34.5 | 23.7 | 14.9 | 15.8 | 34.9 | 16.4 | 14.4 | 16.5 | 20.2 | 16.2 | 17.7 | 30.3 | 20.8 | 15.6 | 16 | 16.7 |  |
| CCOP(=O)(Nc1ccc(-c2ccc(N)cc2)cc1)OCC | > 100 | > 100 | > 100 | > 100 | > 100 |  | > 100 |  | > 100 | > 100 | > 100 | > 100 | > 100 | > 100 | > 100 |  | > 100 | > 100 | > 100 | > 100 |
| N#Cc1sc2c(c1OC(=O)c1ccc(Cl)cc1Cl)c(=O)n(-c1ccccc1)c(=S)n2-c1ccccc1 | 34.6 |  | > 100 | 50.8 | > 100 | 39.2 | 92.5 | 26.7 | 73.4 | > 100 | > 100 | 89.6 |  | 7.3 | 61.2 | > 100 | 96.4 | 42.2 | 60 | 50.3 |
| COn1oc(=O)c2ccccc21 | > 100 | > 100 | > 100 | > 100 | > 100 | > 100 | > 100 | > 100 | > 100 | > 100 | > 100 | > 100 | > 100 | > 100 | > 100 |  | > 100 | > 100 | > 100 | > 100 |
| Cc1ccc2nc(CN(CCO)CCO)cc(=O)n2c1 |  | > 100 | > 100 | > 100 | > 100 | > 100 | > 100 | > 100 | > 100 | > 100 | > 100 | > 100 | > 100 | > 100 |  |  | > 100 | > 100 |  | > 100 |
| COc1ccc(NC(=O)C(C#N)=C(SC)SC)cc1 | > 100 | > 100 |  | > 100 | > 100 | > 100 | > 100 | > 100 | > 100 | > 100 |  | > 100 | > 100 | > 100 | > 100 | > 100 | > 100 | > 100 | > 100 |  |
| O=C1CCCCCCCCCCC1CN1CCOCC1 (stereo unspecified) | > 100 | > 100 | > 100 | > 100 | > 100 | > 100 | > 100 | > 100 | > 100 | > 100 |  | > 100 | > 100 | > 100 |  | > 100 | > 100 | > 100 | > 100 |  |
| Cc1nn(C(=O)Cc2ccccc2)c2c1C(c1ccc([N+](=O)[O-])cc1)SC(N)=N2 (stereo unspecified) | > 100 | > 100 | > 100 | > 100 |  | > 100 | > 100 | > 100 | > 100 | > 100 |  | > 100 | > 100 | > 100 | > 100 | > 100 | > 100 | > 100 | > 100 |  |
| C/C=C\C(CC(=O)NCCC1CN(C(=O)OCc2ccccc2)c2ccccc21)CC(=O)OC (stereo unspecified) | > 100 | > 100 | > 100 | > 100 | > 100 |  | > 100 | > 100 | > 100 | > 100 | > 100 | > 100 | > 100 | > 100 | > 100 |  | > 100 | > 100 | > 100 | > 100 |
